Consider three compounds from patent US4371535A, “Method of and composition for delivering 5-fluorouracil to tumors” (priority 1976, dated 1983).

The conditions of data set [1]: cited from earlier work.
The subject of the next data set is transplanted tumors. The note with it: Heidelberger et al.; cited from earlier work.
A further data set deals with tumor. Put plainly: Anti-tumor activity, overall comparison with 1-(2-tetrahydrofuryl)-5-fluorouracil. It is filed as in vivo. To be noted: versus 1-(2-tetrahydrofuryl)-5-fluorouracil. As to the method: (§1) As transplantable tumors, Ehrlich carcinoma and sarcoma 180 are used for mice and Yoshida sarcoma and AH 130 for rats. […] The effect of the compound is determined in terms of the weight of tumor on the 10th day from the transplantation.

The subject of another data set is AH-130. The data set can be described thus: Anti-tumor activity on AH-130, subcutaneous transplant. The data set is classed as in vivo. The note with it: rats, oral once daily 7 days, 121.5 mg/kg (bis) or 90 mg/kg (mono); for Weight of tumor: 10th day, control 2.10 ± 0.50 g; for Inhibition percentage: tumor weight on 10th day. The method, then:
as §1

A short description of the next data set: in vivo. It is filed as in vivo. The note with it: mouse, in vivo, oral, mice. The method, then:
(§2) Mice (ddy strain, male, 5 weeks old) are reared for one week, then fasted for 15 hours and thereafter orally given the compound forcibly. After the administration, the mice are placed into plastic cages, with free access to a solid diet and water, and checked for mortality 3 days, one week, 2 weeks and 3 weeks later. LD50 is calculated according to the method of Litchfield and Wilcoxon.

The test system of a further data set is Mice (ddy strain). Put plainly: in vivo. To be noted: for LD50: oral, mice. The data set is classed as in vivo. As to the method: as §2
A further data set is described as follows: Solubility. The data set is classed as physicochemical.
The test system of a further data set is sarcoma 180. Put plainly: Anti-tumor activity on sarcoma 180, subcutaneous transplant. To be noted: mice, oral once daily 7 days, 121.5 mg/kg (bis) or 90 mg/kg (mono); for Weight of tumor: 10th day, control 1.00 ± 0.09 g; for Inhibition percentage: tumor weight on 10th day. The data set is classed as in vivo. The method, then:
as §1

Another data set relates to Yoshida sarcoma. The data set can be described thus: Anti-tumor activity on Yoshida sarcoma, subcutaneous transplant. It is filed as in vivo. The note with it: rats, oral once daily 7 days, 121.5 mg/kg (bis) or 90 mg/kg (mono); for Weight of tumor: 10th day, control 4.48 ± 0.60 g; for Inhibition percentage: tumor weight on 10th day. The method, then: as §1
Another data set relates to Ehrlich carcinoma. Put plainly: Anti-tumor activity on Ehrlich carcinoma, subcutaneous transplant. It is filed as in vivo. To be noted: mice, oral once daily 7 days; for Inhibition percentage: 121.5 mg/kg (bis) or 90 mg/kg (mono), tumor weight on 10th day; for Weight of tumor: 121.5 mg/kg (bis) or 90 mg/kg (mono, equimolar), 10th day, control 0.61 ± 0.08 g. As to the method:
as §1

Data set [2] can be described thus: Conversion in the body into 5-fluorouracil. The note with it: in vivo.
Description: (§3) Cells of the tumor, AH-130, 5×10^6 in number, are subcutaneously transplanted in the armpit region of test animals (3 in each group). […] The concentration of 5-fluorouracil in the blood and in the cancer cellular tissue of the animals are measured 1, 2, 4, 8 and 12 hours after the administration.
The nature of data set [3]: Toxicity and side effects, overall statement. The note with it: versus 1-(2-tetrahydrofuryl)-5-fluorouracil.
The next data set has as its system cellular immunity. The note with it: mouse, in vivo.
The conditions of data set [4]: rat, in vivo; for Concentration of 5-fluorouracil in cancer cellular tissue: po.
Description: as §3
The conditions of data set [5]: rat, in vivo; for Concentration of 5-fluorouracil in blood: po.
Description: as §3
The test system of another data set is immunity. The note with it: versus 5-fluorouracil; Giller et al., British Pat. No. 1,168,391; cited from earlier work.

One may read the LD50 as the dose at which mortality reaches 50%.

Like-named read-outs stand apart in the source and are kept apart here.

Description for cellular immunity: A predetermined amount of 7 wt. % ethanol solution of picryl chloride is given to the shaved abdomens of mice for sensitization. […] On the seventh day after the sensitization, a 1 wt. % olive oil solution of picryl chloride is applied to the inside of both ears of each animal to give rise to a delayed cutireaction. The thickness of the ear resulting from the reaction in 24 hours is measured to calculate the percentage of inhibition on immunity.

For `O=c1[nH]cc(F)c(=O)[nH]1` [5-fluorouracil], the “Toxicity, in words” value in data set [1] (background statement) is reported as “highly toxic”. For the same compound, the “Side effects, in words” value in data set [1] (in vivo) was “reduced immunity, gastro-intestinal ulceration, leucopenia and various other side effects”. In addition, the “Anti-tumor activity, in words” value in the data set with transplanted tumors is on record as “inhibit transplanted tumors”.

Turning to `O=c1c(F)cn(C2CCCO2)c(=O)n1C1CCCO1` (centres unmarked) [1,3-bis(2-tetrahydrofuryl)-5-fluorouracil], the “Anti-tumor activity, in words” value in the data set with tumor is recorded as “more excellent anti-tumor activity”. Also, the Weight of tumor was determined as 0.92 ± 0.35 g with AH-130, 0.31 ± 0.10 g in the data set with sarcoma 180, 2.59 ± 0.33 g in the data set on Yoshida sarcoma and 0.26 ± 0.06 g with Ehrlich carcinoma. The Inhibition percentage in the data set on AH-130 is on record as 56%; in the data set on sarcoma 180, 69%; with Yoshida sarcoma it was 42%; with Ehrlich carcinoma, 57%. The LD50 at 504 h in the data set “in vivo” (3 weeks) was determined as 2560 mg/kg. Further, in the data set “in vivo” (3 days), the LD50 at 72 h is 2980 mg/kg. In addition, the LD50 is on record as 2,780 mg/kg in the data set with Mice (ddy strain) (1 week, 10080 min) and 2,664 mg/kg with Mice (ddy strain) (2 weeks, 20160 min). Besides, in the data set on Mice (ddy strain) (versus composition containing 1-(2-tetrahydrofuryl)-5-fluorouracil), the “Acute toxicity relative to the conventional composition” value was “about one-third”. Also, the Solubility result in the data set “Solubility” (methanol, ethanol, acetone, ether, chloroform, glacial acetic acid, dimethyl sulfoxide) is given as “soluble”; in “Solubility” (water, aqueous caustic soda solution, ethyl acetate, hydrochloric acid) it was “sparingly soluble”. For the same compound, the “Conversion in the body (prodrug)” value in data set [2] was “converted in the body into 5-fluorouracil”. Further, the “Side effects, in words” value in data set [3] is “less side effects”. The “Toxicity, in words” value in [3] is “lower toxicity”. In the data set with cellular immunity, the “Inhibitory effect on the cellular immunity relative to the conventional composition” value is reported as “lower inhibitory effect on the cellular immunity”. The “Concentration of 5-fluorouracil in cancer cellular tissue relative to the conventional composition” value in data set [4] is 10-20 times. The “Concentration of 5-fluorouracil maintained in cancer cellular tissue, in words” value in data set [4] is on record as “much higher”. The “Concentration of 5-fluorouracil in cancer cellular tissue” value is 8930 ng/mL in [4] (60 min); 7530 ng/mL in data set [4] (120 min); 7530 ng/mL in data set [4] (240 min); 5400 ng/mL in data set [4] (480 min); 2130 ng/mL in data set [4] (720 min). Also, in data set [5], the “Concentration of 5-fluorouracil in the blood relative to the conventional composition” value is on record as 10-20 times. Besides, the “Concentration of 5-fluorouracil in blood” value in data set [5] (60 min) was 5880 ng/mL; in data set [5] (120 min), 5080 ng/mL; in data set [5] (240 min), 2650 ng/mL; in data set [5] (480 min), 570 ng/mL; in [5] (720 min), 200 ng/mL.

Take `O=c1[nH]c(=O)n(C2CCCO2)cc1F` (centres unmarked) [1-(2-tetrahydrofuryl)-5-fluorouracil, reference compound]: the Weight of tumor in the data set on AH-130 is listed as 1.11 ± 0.17 g; in the data set on sarcoma 180, 0.36 ± 0.11 g; in the data set with Yoshida sarcoma, 3.48 ± 0.68 g; with Ehrlich carcinoma, 0.37 ± 0.14 g. Further, the Inhibition percentage worked out at 47% with AH-130, 64% in the data set with sarcoma 180, 22% with Yoshida sarcoma and 39% in the data set on Ehrlich carcinoma. In the data set on immunity, the “Inhibition on immunity, in words” value was “less inhibitory on immunity than 5-fluorouracil”. For the same compound, the “Toxicity, in words” value in data set [1] (versus 5-fluorouracil, Giller et al., British Pat. No. 1,168,391) is on record as “lower in toxicity”. For the same compound, the “Concentration of 5-fluorouracil in cancer cellular tissue” value was at most 200 ng/mL in [4] (60 min); 350 ng/mL in data set [4] (120 min); 350 ng/mL in [4] (240 min); 340 ng/mL in data set [4] (480 min); at most 200 ng/mL in [4] (720 min). Moreover, the “Concentration of 5-fluorouracil in blood” value in data set [5] (60 min) is 200 ng/mL; in [5] (120 min), 300 ng/mL; in data set [5] (240 min), 200 ng/mL; in data set [5] (480 min), 80 ng/mL; in data set [5] (720 min) it was at most 40 ng/mL.
